The source of these data is US20160251341A1, “SUBSTITUTED TRIAZOLE COMPOUNDS AS SERINE PROTEASE INHIBITORS” (Verseon Corporation, priority 2015, published 2016).

The structures appear in SMILES notation.

In one series the test system is malignant breast tumors.
Assay: not given
Conditions: at 4 weeks, treated mice; cited from earlier work.
`CCCCCCOC(=O)NC(=N)c1ccc(NCc2nc3cc(C(=O)N(CCC(=O)OCC)c4ccccn4)ccc3n2C)cc1` [dabigatran etexilate]: the “reduction in tumor volume” value was 50% and the weight loss result is “no weight loss”.

Still in this series, the particulars now being: treated mice; cited from earlier work.
Regarding `CCCCCCOC(=O)NC(=N)c1ccc(NCc2nc3cc(C(=O)N(CCC(=O)OCC)c4ccccn4)ccc3n2C)cc1` [dabigatran etexilate], the “reduced tumor cells in the blood and liver micrometastases” value is on record as 50-60%.

A further series deals with T1, Human thrombin (Homo sapiens, UniProt P00734).
T1 construct: purchased Haematologic Technologies Inc
In words: Thrombin protease inhibition assay (chromogenic substrate S-2238). It is filed as biochemical. Conditions: 3 nM human thrombin, 125 μM S-2238, 10 min pre-incubation, RT. The method, then:
The thrombin activity reported herein (e.g., Table A) was obtained as follows. Human thrombin was obtained from Haematologic Technologies Inc. The chromogenic substrate S-2238 was obtained from DiaPharma. Thrombin was assayed in buffer containing 0.05 M Tris (pH 7.4), 0.015 M NaCl and 0.01% PEG-8000. The final concentration of enzyme used was 3 nM thrombin. The final concentration of substrate used was 125 μM S-2238 for thrombin. All assays were performed in 96-well microtiter plates at room temperature (RT). The enzyme and inhibitor were pre-incubated for 10 minutes then substrate was added and read at 405 nm in a SpectraMax Plus Spectrophotometer (Molecular Devices). Inhibitor IC50 values were determined by adding test compound as ten point, three-fold serial dilutions in buffer solution, as known in the art. The plate was read at 10 minutes after substrate addition. The IC50 was calculated by plotting the percent (%) inhibition against compound concentration and fitting the data to a constrained four parameter sigmoidal curve, as known in the art.
In turn, `COc1ccccc1C(=O)n1nc(C2CN(S(=O)(=O)N3CCCC3)C2)nc1NCc1ccc(Cl)s1` [Entry 49, N-[(5-chlorothiophen-2-yl)methyl]-1-(2-methoxybenzoyl)-3-[1-(pyrrolidine-1-sulfonyl)azetidin-3-yl]-1H-1,2,4-triazol-5-amine] came in with an IC50 of no more than 100 nM. Still for that read-out and setting: the figure for `Cc1ccccc1C(=O)n1nc(C2CCOCC2)nc1NCc1ccc(Cl)s1` [Entry 50, N-[(5-chlorothiophen-2-yl)methyl]-1-(2-methylbenzoyl)-3-(oxan-4-yl)-1H-1,2,4-triazol-5-amine] is no more than 100 nM. Compound `O=C(c1ccoc1)n1nc(C2CCOCC2)nc1NCc1ccc(Cl)s1` [Entry 51, N-[(5-chlorothiophen-2-yl)methyl]-1-(furan-3-carbonyl)-3-(oxan-4-yl)-1H-1,2,4-triazol-5-amine] came in with a concentration for half-maximal inhibition (IC50) of no more than 100 nM. `O=C(c1ccoc1)n1nc(C2CCCO2)nc1NCc1ccc(Cl)s1` (stereo not shown) [Entry 52, N-[(5-chlorothiophen-2-yl)methyl]-1-(furan-3-carbonyl)-3-(oxolan-2-yl)-1H-1,2,4-triazol-5-amine] displayed an IC50 of no more than 100 nM.

The compound `O=C(c1ccoc1)n1nc(C2CCOC2)nc1NCc1ccc(Cl)s1` (stereo not shown) [Entry 53, N-[(5-chlorothiophen-2-yl)methyl]-1-(furan-3-carbonyl)-3-(oxolan-3-yl)-1H-1,2,4-triazol-5-amine] displayed an IC50 of no more than 100 nM. Same read-out and setting: the figure for `COc1ccccc1C(=O)n1nc(C2CN(S(C)(=O)=O)C2)nc1NCc1ccc(Cl)s1` [Entry 54, N-[(5-chlorothiophen-2-yl)methyl]-3-(1-methanesulfonylazetidin-3-yl)-1-(2-methoxybenzoyl)-1H-1,2,4-triazol-5-amine] is no more than 100 nM; for `COc1ccccc1C(=O)n1nc(C2CCN(S(C)(=O)=O)CC2)nc1NCc1ccc(Cl)s1` [Entry 55, N-[(5-chlorothiophen-2-yl)methyl]-3-(1-methanesulfonylpiperidin-4-yl)-1-(2-methoxybenzoyl)-1H-1,2,4-triazol-5-amine] it is no more than 100 nM. On the same count and under the same terms, the figure for `COC1CCCCC1c1n[nH]c(NCc2ccc(Cl)s2)n1` (stereo not shown) [Entry 56, N-[(5-chlorothiophen-2-yl)methyl]-3-(2-methoxycyclohexyl)-1H-1,2,4-triazol-5-amine] is 1000 to 10000 nM.

Compound `O=C(c1ccsc1)n1nc(C2CCOCC2)nc1NCc1ccc(Cl)s1` [Entry 57, N-[(5-chlorothiophen-2-yl)methyl]-3-(oxan-4-yl)-1-(thiophene-3-carbonyl)-1H-1,2,4-triazol-5-amine] registered an IC50 of no more than 100 nM. Still for that read-out and setting: the figure for `Clc1ccc(CNc2nc(C3CCOCC3)n[nH]2)s1` [Entry 58, N-[(5-chlorothiophen-2-yl)methyl]-3-(oxan-4-yl)-1H-1,2,4-triazol-5-amine] is no less than 100000 nM; for `O=C(c1ccsc1)n1nc(C2CCCO2)nc1NCc1ccc(Cl)s1` (stereo not shown) [Entry 59, N-[(5-chlorothiophen-2-yl)methyl]-3-(oxolan-2-yl)-1-(thiophene-3-carbonyl)-1H-1,2,4-triazol-5-amine] it is no more than 100 nM. `Clc1ccc(CNc2nc(C3CCCO3)n[nH]2)s1` (stereo not shown) [Entry 60, N-[(5-chlorothiophen-2-yl)methyl]-3-(oxolan-2-yl)-1H-1,2,4-triazol-5-amine]: the IC50 was no less than 100000 nM. The compound `O=C(c1ccsc1)n1nc(C2CCOC2)nc1NCc1ccc(Cl)s1` (stereo not shown) [Entry 61, N-[(5-chlorothiophen-2-yl)methyl]-3-(oxolan-3-yl)-1-(thiophene-3-carbonyl)-1H-1,2,4-triazol-5-amine] showed an IC50 of no more than 100 nM. For `Clc1ccc(CNc2nc(C3CCOC3)n[nH]2)s1` (stereo not shown) [Entry 62, N-[(5-chlorothiophen-2-yl)methyl]-3-(oxolan-3-yl)-1H-1,2,4-triazol-5-amine], the IC50 is no less than 100000 nM.

`COc1ccccc1C(=O)n1nc(C2CN(S(=O)(=O)C3CCCCC3)C2)nc1NCc1ccc(Cl)s1` [Entry 63, N-[(5-chlorothiophen-2-yl)methyl]-3-[1-(cyclohexanesulfonyl)azetidin-3-yl]-1-(2-methoxybenzoyl)-1H-1,2,4-triazol-5-amine] had an IC50 of no more than 100 nM.

Compound `COc1ccccc1C(=O)n1nc(C2CCN(S(=O)(=O)C3CCCCC3)CC2)nc1NCc1ccc(Cl)s1` [Entry 64, N-[(5-chlorothiophen-2-yl)methyl]-3-[1-(cyclohexanesulfonyl)piperidin-4-yl]-1-(2-methoxybenzoyl)-1H-1,2,4-triazol-5-amine] had an IC50 of no more than 100 nM. The same measure, in the same setting: the result for `COc1ccccc1C(=O)n1nc(C2CCOCC2)nc1NCc1ccccc1` [Entry 65, N-benzyl-1-(2-methoxybenzoyl)-3-(oxan-4-yl)-1H-1,2,4-triazol-5-amine] reads 1000 to 10000 nM; that for `c1ccc(CNc2nc(C3CCOCC3)n[nH]2)cc1` [Entry 66, N-benzyl-3-(oxan-4-yl)-1H-1,2,4-triazol-5-amine], no less than 100000 nM.

Compound `CC(C)(C)OC(=O)N1CCCC1c1n[nH]c(N)n1` (stereo not shown) [Entry 67, tert-butyl 2-(5-amino-1H-1,2,4-triazol-3-yl)pyrrolidine-1-carboxylate] returned an IC50 of no less than 100000 nM.

In turn, `COc1ccccc1C(=O)n1nc(C2CCCN2C(=O)OC(C)(C)C)nc1NCc1ccc(Cl)s1` (stereo not shown) [Entry 68, tert-butyl 2-(5-[(5-chlorothiophen-2-yl)methyl]amino-1-(2-methoxybenzoyl)-1H-1,2,4-triazol-3-yl)pyrrolidine-1-carboxylate] displayed an IC50 of 100 to 1000 nM. Same read-out and setting: the result for `CC(C)(C)OC(=O)N1CCCC1c1n[nH]c(NCc2ccc(Cl)s2)n1` (stereo not shown) [Entry 69, tert-butyl 2-(5-[(5-chlorothiophen-2-yl)methyl]amino-1H-1,2,4-triazol-3-yl)pyrrolidine-1-carboxylate] reads no less than 100000 nM.

The compound `CC(C)(C)OC(=O)N1CC(c2n[nH]c(N)n2)C1` [Entry 70, tert-butyl 3-(5-amino-1H-1,2,4-triazol-3-yl)azetidine-1-carboxylate] displayed an IC50 of no less than 100000 nM.

`COc1ccccc1C(=O)n1nc(C2CN(C(=O)OC(C)(C)C)C2)nc1NCc1ccc(Cl)s1` [Entry 71, tert-butyl 3-(5-[(5-chlorothiophen-2-yl)methyl]amino-1-(2-methoxybenzoyl)-1H-1,2,4-triazol-3-yl)azetidine-1-carboxylate] returned an IC50 of no more than 100 nM. For the compound `CC(C)(C)OC(=O)N1CC(c2n[nH]c(NCc3ccc(Cl)s3)n2)C1` [Entry 72, tert-butyl 3-(5-[(5-chlorothiophen-2-yl)methyl]amino-1H-1,2,4-triazol-3-yl)azetidine-1-carboxylate], the IC50 was no less than 100000 nM. For the compound `CC(C)(C)OC(=O)N1CCC(c2n[nH]c(N)n2)CC1` [Entry 73, tert-butyl 4-(5-amino-1H-1,2,4-triazol-3-yl)piperidine-1-carboxylate], the IC50 was no less than 100000 nM. Compound `COc1ccccc1C(=O)n1nc(C2CCN(C(=O)OC(C)(C)C)CC2)nc1NCc1ccc(Cl)s1` [Entry 74, tert-butyl 4-(5-[(5-chlorothiophen-2-yl)methyl]amino-1-(2-methoxybenzoyl)-1H-1,2,4-triazol-3-yl)piperidine-1-carboxylate] came in with an IC50 of no more than 100 nM. As to `CC(C)(C)OC(=O)N1CCC(c2n[nH]c(NCc3ccc(Cl)s3)n2)CC1` [Entry 75, tert-butyl 4-(5-[(5-chlorothiophen-2-yl)methyl]amino-1H-1,2,4-triazol-3-yl)piperidine-1-carboxylate], the IC50 was no less than 100000 nM.

In turn, `COc1ccccc1C(=O)n1nc(C2CCN(C(=O)OC(C)(C)C)CC2)nc1NCc1ccccc1` [Entry 76, tert-butyl 4-[5-(benzylamino)-1-(2-methoxybenzoyl)-1H-1,2,4-triazol-3-yl]piperidine-1-carboxylate] displayed an IC50 of no more than 100 nM.

Usually IC50 stands for the point on the concentration scale where inhibition reaches its midpoint. The low end stands for greater potency in that assay, the high end for weaker potency in that assay.
